Measurements reported in US12599560B2, “Lipids and lipid nanoparticle formulations” (Longuide Biopharma Corporation, priority 2023, dated 2026).

Legend:
[1] = system: Delta-S protein; assay: In vivo immunization with Delta Spike mRNA LNP, serum ELISA for specific antibody; parameters: species or system mice; conditions: serum after second administration
Description: Lipid nanoparticles encapsulating the nucleic acid drugs were prepared according to step 2. The mRNA was replaced with Delta Spike full length mRNA (Shanghai Zhaowei Science and Technology Development Co., Ltd.) and then administered to the mice at a dose of 5 μg per mouse, and on the 14th day after the first immunization, the whole blood of the mice was collected by canthus sampling, and the drug administration was repeated for the second immunization. On the 14th day after the second immunization, the whole blood was collected from mice by canthus sampling. The whole blood was centrifuged at 5000 rcf for 5 mn, and the supernatant was centrifuged at 10000 rcf for 5 min to obtain the serum, which was aliquated into serial tubes and stored in the refrigerator at −20° C.
• 9.2.1 Coating: Add 100 μL of 0.2 μg/100 μL Delta-S protein (Novoprotein Scientific Inc.) dilution solution to each well, and leave it in the refrigerator at 4° C. overnight. • 9.2.2 Washing: Add 200 μL of PBST (PBS buffer solution containing 0.05% Tween-20 at pH 7.4) to each well and wash three times. • 9.2.3 Blocking: Add 200 μL of 5% (w/v) BSA-PBS solution (BSA bovine serum albumin, Bioss Biotechnology Co., Ltd.) to each well, and shake for 2 h at 50 rcf at room temperature using a shaker. • 9.2.4 Washing: Add 200 μL of PBST to each well to wash once. • 9.2.5 Adding samples: Add 100 μL of serum diluted 200 times with PBS (0.5 μL of serum) to each well (for the ELISA titer assay, serum diluted 200 times, 800 times, 3200 times, 12800 times, 51200 times, 204800 times), and shake at room temperature for 2 h at 50 rcf using a shaker. • 9.2.6 Washing: Add 200 μL of PBST into each well for three times. • 9.2.7 Adding detection antibody: Add 100 μL of HRP-labeled goat anti-mouse IgG detection antibody (0.1 μL of antibody master batch) (Sangon Biotech (Shanghai) Co., Ltd.) diluted 1000-fold into each well, and shake at 50 rcf for 1 h at room temperature using a shaker. • 9.2.8 Washing: Add 200 μL of PBST to each well and wash three times. • 9.2.9 Adding TMB (Beijing Solarbio Science & Technology Co., Ltd.): Add 50 μL of TMB mixture with the volume ratio of liquid A:liquid B of 1:1 to each well, and react for 5 mn (ELISA of blood sample I), 7 min 58 sec (ELISA of blood sample II), and react for about 5 min (ELISA titer of blood sample II). • 9.2.10 Adding phosphate (Aladdin Reagent (Shanghai) Co., Ltd.): add 50 μL of 1 mol/L phosphate per well to terminate the reaction. • 9.2.11 Detection: Use multi-function plate reader for detection. 9.3. Neutralization Antibody Levels Detected by Pseudovirus Neutralization Assay • 9.3.1 Cell seeding: 293T-ACE2 cells (Fubio (Suzhou) Biomedical Technology Co., Ltd.) were inoculated with 1×10^5 cells in each well of a 48-well plate at a concentration of 1×10^5 cells in 300 μL of DMEM medium (containing 10% heat-inactivated FBS without bispecific antibody), the 48-well plate was labeled with information such as “number, cell type, number of generations, medium type, date and name”, and then the cells were cultured in a cell culture incubator at 37° C. with 5% CO2 for 18 hours. • 9.3.2 Before the pseudovirus transfection operation, prepare an ice box, re-dissolve the serum to be used on ice, thaw on ice the virus from the −25° C. refrigerator. After thawing, the serum and pseudovirus were flicked homogenously and centrifuged with a palm centrifuge. • 9.3.3 Examine the neutralization antibody with serum diluted in different ratios: use complete culture medium to dilute the pseudovirus (Fubio (Suzhou) Biomedical Technology Co., Ltd.) and mouse serum respectively, mix them well, and then dilute them 40-fold, 100-fold, 250-fold and 625-fold according to the final concentration of the cells of incubation. […]

[2] = system: mice; assay: In vivo delivery of FLuc-mRNA lipid nanoparticle preparations in mice (IVIS imaging); parameters: In vivo IVIS / In vivo IVIS (liver) / In vivo IVIS (spleen): unit not given here; conditions: for in vivo delivery efficiency as compared to the benchmark compound SM102: certain formulations
Description: 7. In Vivo Delivery of the Nucleic Acid Lipid Nanoparticle Preparations in Mice After the preparation was completed, the preparation was injected intramuscularly (mice rectus femoris muscle of the thigh) or intravenously (mice tail vein), with approximately 75 μL per mouse, for a total of 3 mice. After a certain time of injection, in vivo imaging (PerkinElmer, IVIS Lumina III) was performed. 10-15 minutes before imaging, 200 μL of 15 mg/mL D-Luciferin working solution was injected intraperitoneally, and the imaging analysis was performed using an in vivo imager.

[3] = Particle size and PDI by dynamic light scattering; type: physicochemical
Description: The 7.5 μL nucleic acid lipid nanoparticle solution (containing approximately 0.04 mg/mL mRNA) was taken and added with 200 μL ultrapure water, mixed by gentle blowing using a pipette tip, and the particle size of the nanopreparation was detected by dynamic lightscattering (DLS) using a Malvern Dynamic Light Scattering Instrument (Malvern Instruments Ltd., ZEN3700, UK). 27.5 μL nucleic acid lipid nanoparticle solution (containing about 0.04 mg/mL mRNA) was taken and added with 200 μL ultrapure water. A pipette tip was used to gently blow the sample and mix well. The particle size of the nanopreparation was detected by Malvern Dynamic Light Scattering Instrument (Malvern Instruments Ltd., ZEN3700, UK). After the detection, the sample was recovered to an EP tube, and 600 μL of ultrapure water was added, gently blown with a pipette tip, and the potential of the nanopreparation was measured by a Malvern particle size meter.

[4] = Table 2, IV, whole body scan, molar ratio DMG-PEG2000:DSPC:Chol:Lipid and N/P
[5] = Table 2, LNP formulation with mRNA
[6] = Table 4, molar ratio 1.40:11.15:38.95:48.50, N/P 40, IM formulation
[7] = Table 4, molar ratio 1.50:16.00:34.00:48.50, N/P 55, IV formulation

SMILES | OD 450 nm-630 nm ([1]; IM) | In vivo IVIS ([2]; Table 2, IM, whole body scan) | In vivo IVIS (liver) ([2]; Table 2, IV) | In vivo IVIS (spleen) ([2]; Table 2, IV) | In vivo IVIS [2, 4] | in vivo delivery efficiency as compared to the benchmark compound SM102 ([2]; Table 2) | Particle size (nm) [3, 5] [nm] | PDI ([3]; Table 2, polydispersity value) | In vivo IVIS ([2]; Table 4, IM) | In vivo IVIS ([2]; Table 4, IV) | PDI [3, 6] | Particle size (nm) [3, 6] [nm] | PDI [3, 7] | Particle size (nm) [3, 7] [nm] | also measured
CCCCCCC(CCCCCC)C(=O)OCCCCOC(=O)C(O)CN1CCN(CCN(CC(O)C(=O)OCCCCOC(=O)C(CCCCCC)CCCCCC)CC(O)C(=O)OCCCCOC(=O)C(CCCCCC)CCCCCC)CC1 (centres unmarked) [Compound L0186] | 1.70 | 1.58 × 10^8 | 5.61 × 10^7 | 2.65 × 10^7 | 2.77 × 10^8 | superior in vivo delivery efficiency | 89.99 ± 0.58 | 0.12 ± 0.00 | – | – | – | – | – | – | –
CCCCCCC(CCCCCC)C(=O)OCCCCCCOC(=O)C(O)CN1CCN(CCN(CC(O)C(=O)OCCCCCCOC(=O)C(CCCCCC)CCCCCC)CC(O)C(=O)OCCCCCCOC(=O)C(CCCCCC)CCCCCC)CC1 (centres unmarked) [Compound L0187] | 1.70 | 9.72 × 10^7 | 2.46 × 10^7 | 2.00 × 10^7 | 1.11 × 10^8 | superior in vivo delivery efficiency | 80.11 ± 0.17 | 0.12 ± 0.01 | – | – | – | – | – | – | –
CCCCCCOCOCCCCCCOC(=O)C(O)CN(CCCN1CCN(CCCN(CC(O)C(=O)OCCCCCCOCOCCCCCC)CC(O)C(=O)OCCCCCCOCOCCCCCC)CC1)CC(O)C(=O)OCCCCCCOCOCCCCCC (centres unmarked) [Compound L0192] | 1.68 | – | – | – | 5.56 × 10^10 | superior in vivo delivery efficiency | – | – | – | – | – | – | – | – | Particle size (nm) ([3]; Table 2, LNP formulation with mRNA, molar ratio 1.50:4.00:59.50:35.00, N/P 65): 112.83 ± 0.31 nm; Particle size (nm) ([3]; Table 2, LNP formulation with mRNA, molar ratio 1.77:14.07:49.16:35.00, N/P 54): 96.59 ± 0.78 nm; Particle size (nm) ([3]; Table 2, LNP formulation with mRNA, molar ratio 1.77:14.07:59.16:25.00, N/P 52): 113.33 ± 1.07 nm; PDI ([3]; Table 2, polydispersity value, molar ratio 1.50:4.00:59.50:35.00, N/P 65): 0.15 ± 0.01; PDI ([3]; Table 2, polydispersity value, molar ratio 1.77:14.07:49.16:35.00, N/P 54): 0.08 ± 0.02; PDI ([3]; Table 2, polydispersity value, molar ratio 1.77:14.07:59.16:25.00, N/P 52): 0.11 ± 0.02
CCCCCCCCCCCCOC(=O)C(O)CN(CCN1CCN(CCN(CC(O)C(=O)OCCCCCCCCCCCC)CC(O)C(=O)OCCCCCCCCCCCC)CC1)CCN(CC(O)C(=O)OCCCCCCCCCCCC)CC(O)C(=O)OCCCCCCCCCCCC (centres unmarked) [Compound L0199] | – | 2.19 × 10^7 | – | – | 1.07 × 10^9 | superior in vivo delivery efficiency | – | – | 5.93 × 10^6 | 9.35 × 10^8 | 0.09 ± 0.02 | 123.50 ± 0.36 | 0.10 ± 0.02 | 147.57 ± 1.17 | OD 450 nm-630 nm ([1]; IV): 1.52; Particle size (nm) ([3]; Table 2, LNP formulation with mRNA, molar ratio 1.40:11.15:38.95:48.50, N/P 40): 97.65 ± 0.59 nm; Particle size (nm) ([3]; Table 2, LNP formulation with mRNA, molar ratio 2.50:7.00:42.00:48.50, N/P 55): 130.00 ± 1.47 nm; PDI ([3]; Table 2, polydispersity value, molar ratio 1.40:11.15:38.95:48.50, N/P 40): 0.11 ± 0.01; PDI ([3]; Table 2, polydispersity value, molar ratio 2.50:7.00:42.00:48.50, N/P 55): 0.12 ± 0.01
CCCCCCCCCCCCOC(=O)CCN(CCC(=O)OCCCCCCCCCCCC)CCN(CCC(=O)OCCCCCCCCCCCC)CCN1CCN(CCN(CCC(=O)OCCCCCCCCCCCC)CCC(=O)OCCCCCCCCCCCC)CC1 [L0199-Control, reference compound] | – | – | – | – | – | – | – | – | 5.84 × 10^6 | 2.12 × 10^7 | 0.17 ± 0.02 | 133.43 ± 1.86 | 0.16 ± 0.03 | 144.33 ± 0.31 | delivery efficiency, times lower than the hydroxy compound (L0191 or L0199) ([2]; IM administration): slightly lower; delivery efficiency, times lower than the hydroxy compound (L0191 or L0199) ([2]; IV administration): about 44 times
